Laboratory results taken from patent publication US4293694A, “Pyrido[3,2,1-jk]carbazols” (Otsuka Pharmaceutical Co., Ltd., priority 1979, dated 1981).
In brackets after ≈: the same amount, converted by molar mass. Like-named read-outs stand apart in the source and are kept apart here.

Tests used:
[1] = tested on: Streptococcus faecalis IFO 12580; test: Antimicrobial activity, serial dilution method on agar plate; assay type: cell-based; conditions: Enterococcus faecalis, IFO12580, read-out: Minimum Inhibitory Concentration (MIC)
Candida albicans KYU = test: as above; assay type: cell-based; conditions: read-out: Minimum Inhibitory Concentration (MIC)
Bacillus anthracis = test: microbe, parasite or virus in culture; assay type: cell-based; conditions: read-out: Minimum Inhibitory Concentration (MIC)
[2] = tested on: Serratia marcescens ATCC 14756; test: Antimicrobial activity, serial dilution method on agar plate; assay type: cell-based; conditions: ATCC14756, read-out: Minimum Inhibitory Concentration (MIC)
[3] = tested on: Salmonella typhimurium kh; test: as above; assay type: cell-based; conditions: Salmonella enterica, read-out: Minimum Inhibitory Concentration (MIC)
Acute toxicity = conditions: rat, in vivo, rats, dd strain, 18 to 22 g, fasted 12 hours
Procedure: Further, the acute toxicity of the compounds of the present invention having the formula (I) was determined by intravenous administration (i.v.) and oral administration (p.o.) in 5 to 6 groups of rats (dd strain; body weight, 18 to 22 g; 10 rats in each group) which had been fasted for 12 hours prior to the test.

Sarcina lutea ATCC 9341 = test: Antimicrobial activity, serial dilution method on agar plate; assay type: cell-based; conditions: Micrococcus luteus, ATCC9341, read-out: Minimum Inhibitory Concentration (MIC)
[4] = tested on: Staphyrococcus aureus Newmann; test: as above; assay type: cell-based; conditions: read-out: Minimum Inhibitory Concentration (MIC)
Enterbactor cloacae 2 = test: as above; assay type: cell-based; conditions: read-out: Minimum Inhibitory Concentration (MIC)
Streptomyces viridans = test: as above; assay type: cell-based; conditions: read-out: Minimum Inhibitory Concentration (MIC)
Proteus mirabilis 1287 = test: as above; assay type: cell-based; conditions: read-out: Minimum Inhibitory Concentration (MIC)
[5] = tested on: Pseudomonas aeruginosa ATCC 10145; test: as above; assay type: cell-based; conditions: ATCC10145, read-out: Minimum Inhibitory Concentration (MIC)
[6] = tested on: Bacillus subtilis ATCC 6633; test: as above; assay type: cell-based; conditions: ATCC6633, read-out: Minimum Inhibitory Concentration (MIC)
[7] = tested on: Esherichia coli NIHJ JC-2; test: as above; assay type: cell-based; conditions: read-out: Minimum Inhibitory Concentration (MIC)
[8] = tested on: Staphyrococcus aureus FDA 209p; test: as above; assay type: cell-based; conditions: read-out: Minimum Inhibitory Concentration (MIC)
[9] = tested on: Bacillus cereus ATCC 11778; test: as above; assay type: cell-based; conditions: ATCC11778, read-out: Minimum Inhibitory Concentration (MIC)
[10] = tested on: Enterbactor aerogenes IFO 12979; test: as above; assay type: cell-based; conditions: read-out: Minimum Inhibitory Concentration (MIC)
[11] = tested on: Micrococcus flavus ATCC 10240a; test: as above; assay type: cell-based; conditions: ATCC10240A, read-out: Minimum Inhibitory Concentration (MIC)
Esherichia coli NIHJ = test: as above; assay type: cell-based; conditions: read-out: Minimum Inhibitory Concentration (MIC)
[12] = tested on: Klebsiella pneumoniae ST-101; test: as above; assay type: cell-based; conditions: ST101, read-out: Minimum Inhibitory Concentration (MIC)
[13] = iv, read-out: LD50 (50% lethal dose), i.v.
[14] = po, read-out: LD50 (50% lethal dose), p.o.

Compound | MIC [1] [µg/mL] | MIC (Candida albicans KYU) [µg/mL] | MIC (Bacillus anthracis) [µg/mL] | MIC [2] [µg/mL] | MIC [3] [µg/mL] | LD50 (Acute toxicity; [13]) [mg/kg] | LD50 (Acute toxicity; [14]) [mg/kg] | MIC (Sarcina lutea ATCC 9341) [µg/mL] | MIC [4] [µg/mL] | MIC (Enterbactor cloacae 2) [µg/mL] | MIC (Streptomyces viridans) [µg/mL] | MIC (Proteus mirabilis 1287) [µg/mL] | MIC [5] [µg/mL] | MIC [6] [µg/mL] | MIC [7] [µg/mL] | MIC [8] [µg/mL] | MIC [9] [µg/mL] | MIC [10] [µg/mL] | MIC [11] [µg/mL] | MIC (Esherichia coli NIHJ) [µg/mL] | other results
O=C(NN=Cc1ccc([N+](=O)[O-])o1)c1cn2c3c(cc(F)cc3c1=O)C1CCCCC12 (stereo not drawn) [Compound 11] | > 100 | > 500 | 6.3 (≈ 14.8 µM) | 12.5 (≈ 29.5 µM) | 12.5 (≈ 29.5 µM) | 180 | 3000 | 100 (≈ 236 µM) | 12.5 (≈ 29.5 µM) | 6.3 (≈ 14.8 µM) | > 100 | 12.5 (≈ 29.5 µM) | > 100 | 3.2 (≈ 7.54 µM) | 12.5 (≈ 29.5 µM) | 12.5 (≈ 29.5 µM) | 12.5 (≈ 29.5 µM) | 6.3 (≈ 14.8 µM) | 100 (≈ 236 µM) | 12.5 (≈ 29.5 µM) | MIC [12]: 6.3 µg/mL (≈ 14.8 µM)
CC1CCN(CCOC(=O)c2cn3c4c(cc(F)cc4c2=O)C2CCCCC23)CC1 (stereo not drawn) [Compound 12] | 50 (≈ 121 µM) | > 500 | 6.3 (≈ 15.3 µM) | 12.5 (≈ 30.3 µM) | 12.5 (≈ 30.3 µM) | 130 | 2000 | 50 (≈ 121 µM) | 6.3 (≈ 15.3 µM) | 6.3 (≈ 15.3 µM) | 100 (≈ 242 µM) | 12.5 (≈ 30.3 µM) | > 100 | 3.2 (≈ 7.76 µM) | 6.3 (≈ 15.3 µM) | 6.3 (≈ 15.3 µM) | 6.3 (≈ 15.3 µM) | 6.3 (≈ 15.3 µM) | 50 (≈ 121 µM) | 6.3 (≈ 15.3 µM) | MIC [12]: 6.3 µg/mL (≈ 15.3 µM)
